Results taken from patent US20250136581A1, “SUBSTITUTED TRIAZOLE DERIVATIVE, PREPARATION METHOD THEREFOR, PHARMACEUTICAL COMPOSITION THEREOF, AND USE THEREOF” (SHANGHAI SIMR BIOTECHNOLOGY CO., LTD., priority 2021, published 2025).

Tests used:
[1] = Rat pharmacokinetic experiment; format: in vivo; details: rat, po, 3 mg/kg
Protocol: The maximum plasma concentration (Cmax) in the rat pharmacokinetic experiment was used to evaluate the absorption of the compounds in rat in vivo. The experimental compound was dissolved and then orally administered by gavage (p.o.) to male SD rats. The rats were fasted overnight before drug administration, and blood was collected via venipuncture at 0.25, 0.5, 1, 2, 4, and 7 hours post dose. Approximately 100 μL blood was collected for each sample; at the same time, the whole brain was taken and homogenized with 3 times the amount of PBS for analysis. The […] method was used to determine drug concentrations in plasma and brain tissue, and the proportion of compounds entering the brain (B/P) was calculated based on the AUC of the compound. Pharmacokinetic parameters were calculated using Phoenix WinNonlin 7.0. The administration vehicle was 5% CMC-Na aqueous solution.

human α1β3γ2 receptors = human α1β3γ2 receptors (Homo sapiens (Human), UniProt P14867+P18507); experiment: 3H-flunitrazepam competition binding, human α1β3γ2 GABAA receptor; details: HEK293 cell membranes, 1 nM 3H-flunitrazepam; read-out: Ki α1
Method in brief: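 Radioligand displacement of 1 nM 3H-flunitrazepam from membranes of HEK293 lines stably expressing the human subtypes, 1 h at room temperature, compound in 8-point 4-fold series. Bound label on GF/C filters counted by scintillation; Ki derived from fitted IC50, with flumazenil as low control.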

- Kp ([1]; male, SD, brain / plasma, read-out: B/P (proportion of compounds entering the brain)): 0.0015
- Cmax ([1]; plasma, male SD rats): 1510 ng/mL
- Ki (human α1β3γ2 receptors): 0.0598 µM
Compound: Cc1nnn(-c2ccc(C(F)F)cc2)c1COc1ccc(N2CC(=O)NC(C)C2)nn1 (stereo not drawn) [Example 6, 4-(6-((1-(4-(Difluoromethyl)phenyl)-4-methyl-1H-1,2,3-triazol-5-yl)methoxy)pyridazin-3-yl)-6-methylpiperazin-2-one]
